# Data from patent publication US20050118099A1, “Thiol-mediated drug attachment to targeting peptides” (priority 2003, published 2005).
# Legend:
# [1] = biological target: human somatostatin receptor SSTR2 of IMR-32 human neuroblastoma cells (human) (UniProt P30874); assay: competition with Indium-111-octreotide on IMR-32 membrane extracts, filter assay, gamma counting
# growth hormone = assay: Serum growth hormone levels (ELISA) in IMR-32 mouse xenograft model; format: in vivo; conditions: AE at 75% of the MTD, potential toxicity to the pituitary gland
# Description: FIG. 4 is a line graph depicting growth hormone levels in an IMR-32 mouse xenograft model following administration of AE (◯), 1×CP1-FKMMAE (□), or 3×CP1-FKMMAE (⋄). The control sample depicts growth hormone levels in the absence of treatment (X). Arrows indicate the times of administration, as described in Example 5. Serum growth hormone levels were determined by ELISA to assess potential toxicity to the pituitary gland.
# (§1) The tumoricidal effects of CP1-FKMMAE were evaluated in a mouse xenograft model. Tumors were established in nude mice by subcutaneous injection of IMR-32 cells. A multiple dose regimen was evaluated based on prior studies using AE, which determined a MTD following four administrations of 0.4 mg/kg. Due to limited availability, AE was used at 75% of the MTD. CP1-FKMMAE was administered at 1× and 3× molar equivalents of AE according to the same dosing schedule. Tumor volume, animal weight, and serum growth hormone levels were assessed for each treatment group.
# IMR-32 cells = assay: Tumor growth inhibition in IMR-32 mouse xenograft model; format: in vivo; conditions: AE at 75% of the MTD, multiple dose regimen
# Description: (§2) FIGS. 3A-3B are line graphs depicting tumor growth inhibition in an IMR-32 mouse xenograft model following administration of AE (◯), 1×CP1-FKMMAE (□), or 3×CP1-FKMMAE (⋄). The control sample depicts uninhibited tumor growth (X). Arrows indicate the times of administration, as described in Example 5.
# as §1
# [2] = Animal weight in IMR-32 mouse xenograft model; format: in vivo; conditions: AE at 75% of the MTD
# Description: as §2, §1
# [3] = following four administrations; prior studies; cited from earlier work
# [4] = biological target: human somatostatin receptor SSTR2 of IMR-32 human neuroblastoma cells (human) (UniProt P30874); assay: uptake of applied cpm by SSTR+ human cancer cells; competitor somatostatin at 1000X molar excess
# [5] = biological target: human somatostatin receptor SSTR2 of IMR-32 human neuroblastoma cells (human) (UniProt P30874); assay: uptake of applied cpm by SSTR+ human cancer cells, 20-24 h at 37 C, gamma counting
# Sequence of UniProt P30874 (P30874 whole entry): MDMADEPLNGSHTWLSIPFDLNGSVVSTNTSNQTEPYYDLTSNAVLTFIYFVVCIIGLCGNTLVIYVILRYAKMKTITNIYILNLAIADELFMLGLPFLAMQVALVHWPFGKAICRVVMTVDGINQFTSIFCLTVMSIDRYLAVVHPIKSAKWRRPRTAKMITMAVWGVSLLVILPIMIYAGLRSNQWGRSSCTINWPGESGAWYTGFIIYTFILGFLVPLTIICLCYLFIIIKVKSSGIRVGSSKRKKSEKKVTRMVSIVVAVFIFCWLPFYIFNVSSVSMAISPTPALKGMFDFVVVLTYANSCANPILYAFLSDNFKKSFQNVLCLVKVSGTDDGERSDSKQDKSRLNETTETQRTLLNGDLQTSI
molecule,measurement,setting,value
octreotide (unlabeled) (peptide),IC50,[1],3 nM
"CC[C@H](C)[C@@H]([C@@H](CC(=O)N1CCC[C@H]1[C@H](OC)[C@@H](C)C(=O)N[C@H](C)[C@@H](O)c1ccccc1)OC)N(C)C(=O)[C@@H](NC(=O)[C@H](C(C)C)N(C)C)C(C)C [AE, Auristatin E]",Serum growth hormone levels,growth hormone,relative stability
same,Mean tumor volume,IMR-32 cells,reduction in mean tumor volume
same,Mean mouse weight,[2],slightly increased
same,MTD (maximal tolerable dose),[3],0.4 mg/kg
Indium-111-octreotide (peptide),Percentage (%) Uptake in the Presence of 1000X SST,[4],0.1%
same,Percentage (%) Uptake,[5],4.4%
